Measurements from patent publication US8859232B2, “Genetically encoded photomanipulation of protein and peptide activity” (The University of North Carolina at Chapel Hill, priority 2009, dated 2014).

Test system: MEF cells expressing mVenus-tagged PA-Rac1
Test: Inhibitor studies: localized activation of PA-Rac1 in inhibitor-treated MEF cells
Assay type: cell-based, mouse
Settings: Blebbistatin 1 μM, Y-27632 10 μM; for effect of inhibitor on PA-Rac1 light-induced protrusion: FIG. 6C; for effect of inhibitor on the ability of Rac1 to specify the direction of movement: FIG. 6D
Procedure: Inhibitor studies: MEF cells expressing mVenus-tagged PA-Rac1 were incubated with 1 μM myosin II inhibitor Blebbistatin, 1 μM MLCK inhibitor ML-7, or 10 μM ROCK inhibitor Y-27632 (Calbiochem). Cells underwent the cell shape changes previously described (Katsumi et al., J. Cell Biol. 158:153 (2002)) and then reached a stable state within 30 minutes. After this cells were irradiated with the 458 nm laser at a 10-μm spot to induce PA-Rac activation.
Protrusion/retraction analysis: Fluorescence images of MEF cells expressing mVenus-tagged PA-Rac1 and its mutants were masked based on intensity thresholding to produce binary images. Regions of protrusion were isolated by subtracting the binary image at a given time point from that at time 0. Conversely the binary images of retraction were obtained. Areas not part of protrusions or retractions, those that overlapped the time 0 image, were obtained by subtracting the above two images from that at time 0. Each binary image was assigned a different color: red=protrusion, blue=retraction, green=area overlapping with time 0, and white=background. These operations were carried out using MetaMorph software.
Polarity index calculation: To obtain the polarity index (cos θ) of the migrating MEF cells, X and Y coordinates were obtained for the centroid before movement (x0,y0), the centroid after movement (x1,y1), and for the center of the irradiation spot (x2,y2), using MetaMorph software. The cos and sin values of the angles were obtained using simple triangle calculations. First two angles were defined using an arbitrarily selected horizontal line θ1=angle between the arbitrary line and the line from (x0,y0) to (x1,y1), and θ2=angle between the arbitrary line and the line between (x0,y0) and (x2,y2). The cos used to characterize polarity (see FIG. 6) was obtained using the following formula: cos θ=cos(θ1−θ2)=cos θ1 cos θ2+sin θ1 sin θ2

SMILES	effect of inhibitor on PA-Rac1 light-induced protrusion	effect of inhibitor on the ability of Rac1 to specify the direction of movement
Cc1ccc2c(c1)C(=O)C1(O)CCN(c3ccccc3)C1=N2 (stereo not shown) [Blebbistatin]	little effect	randomization of movement
C[C@@H](N)[C@H]1CC[C@H](C(=O)Nc2ccncc2)CC1 [Y-27632]	strongly reduced protrusion	little effect
